The text below walks through data of article PMC9798004 (Frontiers in Psychiatry, 2022).

One assay deals with T1, MTNR1A (Homo sapiens, UniProt P48039).
T1 construct: purchased Eurofins DiscoverX (PathHunter gpcrMAX)
In words: PathHunter β-arrestin assay. Format: cell-based. Conditions: screen, control agonist; CHO, 37C, 2HR.

Another assay relates to CB1. Further details: method as in PMID 20599795. As to conditions: 10 nM, 15 min application; not recovered up to 5 h later; cited from earlier work.
In the next assay the target is HRH2 (Homo sapiens, UniProt P25021). In words: PathHunter β-arrestin assay. Conditions: control agonist. Format: cell-based.
For the next assay, the target named is HRH4 (Homo sapiens, UniProt Q9H3N8). Conditions: screen, control agonist; U20S, 37C, 4HR.
A further assay deals with OXTR (Homo sapiens, UniProt P30559). The assay can be described thus: PathHunter β-arrestin assay. Format: cell-based. As to conditions: follow-up assays, control antagonist.
Another assay addresses T2, LTB4R (Homo sapiens, UniProt Q15722).
T2 construct: purchased Eurofins DiscoverX (PathHunter gpcrMAX)
In words: PathHunter β-arrestin assay. Format: cell-based. As to conditions: screen, control agonist; CHO, 37C, 2HR.

In the next assay the target is T3, HCRTR1 (Homo sapiens, UniProt O43613).
T3 sequence (O43613 1-425): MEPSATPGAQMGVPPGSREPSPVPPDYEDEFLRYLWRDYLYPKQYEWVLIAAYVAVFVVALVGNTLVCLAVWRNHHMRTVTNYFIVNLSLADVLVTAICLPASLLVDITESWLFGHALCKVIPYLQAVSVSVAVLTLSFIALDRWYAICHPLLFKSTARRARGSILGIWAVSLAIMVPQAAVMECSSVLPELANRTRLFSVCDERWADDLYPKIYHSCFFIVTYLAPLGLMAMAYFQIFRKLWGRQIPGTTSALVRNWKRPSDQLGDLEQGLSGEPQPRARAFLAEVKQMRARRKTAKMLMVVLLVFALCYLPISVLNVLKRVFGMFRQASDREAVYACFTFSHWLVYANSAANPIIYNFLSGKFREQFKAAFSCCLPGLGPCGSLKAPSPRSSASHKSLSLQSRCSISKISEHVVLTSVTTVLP
The assay can be described thus: PathHunter β-arrestin assay. Format: cell-based. As to conditions: follow-up assays, control antagonist. The procedure:
Follow up experiments were prioritized based on the difference between S/N and CoV. Targets with a >5-fold difference between S/N and CoV were investigated for their potential contribution to the AMB-FUBINACA toxidrome with 10-point concentration-response curves generated in technical replicate (range 1.5–30 μM) using the EC80 of the relevant agonist, where applicable in antagonist mode. Simultaneous agonist and antagonist curves were run in parallel to ensure reliability of the assay (see Supplementary Table 2), with both RC50 and signal to background aligning with historical averages, and Z' >0.5. RC50 was estimated using a four-parameter fit (CBIS Data Analysis Suite, ChemInnovation, San Diego, CA) on normalized data.

For another assay, the target named is HCRTR2 (Homo sapiens, UniProt O43614). In words: PathHunter β-arrestin assay. Format: cell-based. Conditions: follow-up assays, control antagonist.
The next assay deals with UTR2 (Homo sapiens, UniProt Q9UKP6). The assay can be described thus: PathHunter β-arrestin assay. Conditions: follow-up assays, control antagonist. Format: cell-based.
A further assay addresses T4, HTR1A (Homo sapiens, UniProt P08908).
T4 construct: purchased Eurofins DiscoverX (PathHunter gpcrMAX)
In words: PathHunter β-arrestin assay. Format: cell-based. Conditions: screen, control agonist; CHO, 37C, 2HR.

In the next assay the target is T5, HTR1B (Homo sapiens, UniProt P28222).
T5 construct: purchased Eurofins DiscoverX (PathHunter gpcrMAX)
In words: PathHunter β-arrestin assay. Format: cell-based. Conditions: screen, control agonist; U20S, 37C, 2HR.

The target in the next assay is T6, HTR1E (Homo sapiens, UniProt P28566).
T6 construct: purchased Eurofins DiscoverX (PathHunter gpcrMAX)
The assay can be described thus: PathHunter β-arrestin assay. Format: cell-based. Conditions: screen, control agonist; U20S, 37C, 2HR.

The next assay has as its target T7, HTR1F (Homo sapiens, UniProt P30939).
T7 construct: purchased Eurofins DiscoverX (PathHunter gpcrMAX)
In words: PathHunter β-arrestin assay. Format: cell-based. Conditions: screen, control agonist; U20S, 37C, 2HR.

The next assay addresses T8, HTR2A (Homo sapiens, UniProt P28223).
T8 construct: purchased Eurofins DiscoverX (PathHunter gpcrMAX)
The assay can be described thus: PathHunter β-arrestin assay. Format: cell-based. As to conditions: screen, control agonist; U20S, 37C, 2HR.

For the next assay, the target named is T9, HTR5A (Homo sapiens, UniProt P47898).
T9 construct: purchased Eurofins DiscoverX (PathHunter gpcrMAX)
The assay can be described thus: PathHunter β-arrestin assay. Format: cell-based. As to conditions: screen, control agonist; U20S, 37C, 2HR.

In another assay the target is T10, ADORA3 (Homo sapiens, UniProt P0DMS8).
T10 construct: host or cells: CHO
In words: PathHunter β-arrestin assay. Format: cell-based. As to conditions: follow-up assays, control antagonist.

Sequence of HRH2 (P25021 whole entry): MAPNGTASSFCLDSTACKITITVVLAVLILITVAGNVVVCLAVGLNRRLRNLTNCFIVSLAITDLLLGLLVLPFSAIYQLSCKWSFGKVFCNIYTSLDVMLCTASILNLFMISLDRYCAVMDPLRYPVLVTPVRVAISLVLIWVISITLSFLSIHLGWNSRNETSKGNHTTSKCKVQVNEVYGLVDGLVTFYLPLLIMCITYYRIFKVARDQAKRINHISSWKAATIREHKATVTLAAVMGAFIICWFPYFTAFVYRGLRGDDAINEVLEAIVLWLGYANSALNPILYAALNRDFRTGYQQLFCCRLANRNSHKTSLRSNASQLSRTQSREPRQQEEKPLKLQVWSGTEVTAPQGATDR
T5 sequence (P28222 whole entry): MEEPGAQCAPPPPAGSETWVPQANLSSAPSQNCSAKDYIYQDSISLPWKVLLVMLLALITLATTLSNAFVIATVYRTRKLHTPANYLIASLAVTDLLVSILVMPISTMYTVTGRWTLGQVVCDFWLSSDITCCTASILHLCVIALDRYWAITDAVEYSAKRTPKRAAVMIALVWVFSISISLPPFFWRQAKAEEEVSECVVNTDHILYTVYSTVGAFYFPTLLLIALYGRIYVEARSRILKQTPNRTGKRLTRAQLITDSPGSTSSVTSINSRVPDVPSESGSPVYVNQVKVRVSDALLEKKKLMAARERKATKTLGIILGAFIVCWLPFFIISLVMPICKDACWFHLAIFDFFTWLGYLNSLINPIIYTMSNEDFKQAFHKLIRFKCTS
Sequence of UTR2 (Q9UKP6 whole entry): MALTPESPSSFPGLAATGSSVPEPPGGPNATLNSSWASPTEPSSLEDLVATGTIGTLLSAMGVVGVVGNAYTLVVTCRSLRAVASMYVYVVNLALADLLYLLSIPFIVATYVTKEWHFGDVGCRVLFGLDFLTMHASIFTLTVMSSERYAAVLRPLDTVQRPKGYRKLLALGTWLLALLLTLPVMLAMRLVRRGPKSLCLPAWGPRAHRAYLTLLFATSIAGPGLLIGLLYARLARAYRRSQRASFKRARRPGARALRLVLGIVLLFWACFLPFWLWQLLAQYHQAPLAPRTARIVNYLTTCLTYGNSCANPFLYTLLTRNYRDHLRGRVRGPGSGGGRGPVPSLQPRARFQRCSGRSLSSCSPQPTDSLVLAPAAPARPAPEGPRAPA
T6 sequence (P28566 whole entry): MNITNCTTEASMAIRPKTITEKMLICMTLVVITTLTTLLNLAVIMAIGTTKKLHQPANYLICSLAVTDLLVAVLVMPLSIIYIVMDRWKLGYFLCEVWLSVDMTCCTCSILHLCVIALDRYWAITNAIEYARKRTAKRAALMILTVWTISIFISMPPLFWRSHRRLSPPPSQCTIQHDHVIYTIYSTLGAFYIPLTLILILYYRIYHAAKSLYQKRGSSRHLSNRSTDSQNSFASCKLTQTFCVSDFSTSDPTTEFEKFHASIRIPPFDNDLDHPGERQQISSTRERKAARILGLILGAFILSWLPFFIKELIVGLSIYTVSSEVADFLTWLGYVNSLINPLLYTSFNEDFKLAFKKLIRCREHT
T8 sequence (P28223 whole entry, looked up): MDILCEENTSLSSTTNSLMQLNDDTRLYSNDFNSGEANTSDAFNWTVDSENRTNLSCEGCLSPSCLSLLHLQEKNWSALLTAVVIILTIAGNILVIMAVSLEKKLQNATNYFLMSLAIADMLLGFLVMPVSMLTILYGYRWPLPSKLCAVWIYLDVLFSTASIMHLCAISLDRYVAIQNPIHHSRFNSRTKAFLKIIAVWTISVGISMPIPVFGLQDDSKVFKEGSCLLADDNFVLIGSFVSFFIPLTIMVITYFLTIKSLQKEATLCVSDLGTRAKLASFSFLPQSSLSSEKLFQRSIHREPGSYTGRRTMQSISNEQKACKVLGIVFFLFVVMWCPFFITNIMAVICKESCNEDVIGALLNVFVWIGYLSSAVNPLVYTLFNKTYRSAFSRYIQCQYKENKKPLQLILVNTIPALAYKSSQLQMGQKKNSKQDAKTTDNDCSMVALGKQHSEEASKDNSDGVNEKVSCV
T9 sequence (P47898 whole entry): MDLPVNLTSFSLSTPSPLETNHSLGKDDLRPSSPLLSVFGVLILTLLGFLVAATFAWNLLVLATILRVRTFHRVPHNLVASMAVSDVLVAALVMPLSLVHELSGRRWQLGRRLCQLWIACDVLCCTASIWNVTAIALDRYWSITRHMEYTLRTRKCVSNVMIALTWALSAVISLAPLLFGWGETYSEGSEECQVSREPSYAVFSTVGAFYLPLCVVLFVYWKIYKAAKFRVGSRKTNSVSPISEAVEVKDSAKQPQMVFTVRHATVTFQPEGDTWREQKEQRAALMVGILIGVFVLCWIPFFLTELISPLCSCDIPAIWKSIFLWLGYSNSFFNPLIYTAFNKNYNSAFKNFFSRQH
Sequence of HCRTR2 (O43614 whole entry): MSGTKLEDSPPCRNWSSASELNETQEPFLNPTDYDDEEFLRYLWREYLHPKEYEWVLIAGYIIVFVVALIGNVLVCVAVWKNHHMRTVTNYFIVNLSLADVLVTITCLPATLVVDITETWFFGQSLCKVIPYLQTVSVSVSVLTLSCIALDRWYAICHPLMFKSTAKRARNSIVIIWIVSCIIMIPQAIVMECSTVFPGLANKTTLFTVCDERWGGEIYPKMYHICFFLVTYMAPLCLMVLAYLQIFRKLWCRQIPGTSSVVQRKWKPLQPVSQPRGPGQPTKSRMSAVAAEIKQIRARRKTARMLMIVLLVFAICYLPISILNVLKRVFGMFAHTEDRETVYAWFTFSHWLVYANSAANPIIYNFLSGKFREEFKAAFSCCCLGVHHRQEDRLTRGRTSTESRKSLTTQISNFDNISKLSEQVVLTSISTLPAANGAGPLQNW
Sequence of OXTR (P30559 whole entry): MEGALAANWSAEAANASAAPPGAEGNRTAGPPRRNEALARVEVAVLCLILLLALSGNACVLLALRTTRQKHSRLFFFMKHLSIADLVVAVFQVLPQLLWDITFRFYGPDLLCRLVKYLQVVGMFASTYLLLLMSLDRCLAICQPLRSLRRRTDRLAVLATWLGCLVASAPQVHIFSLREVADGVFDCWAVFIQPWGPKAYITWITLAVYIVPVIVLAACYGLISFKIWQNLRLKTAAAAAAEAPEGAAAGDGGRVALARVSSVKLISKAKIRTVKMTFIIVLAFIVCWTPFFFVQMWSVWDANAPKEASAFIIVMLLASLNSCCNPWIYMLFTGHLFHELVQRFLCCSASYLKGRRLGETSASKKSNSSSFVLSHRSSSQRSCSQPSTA
T4 sequence (P08908 whole entry): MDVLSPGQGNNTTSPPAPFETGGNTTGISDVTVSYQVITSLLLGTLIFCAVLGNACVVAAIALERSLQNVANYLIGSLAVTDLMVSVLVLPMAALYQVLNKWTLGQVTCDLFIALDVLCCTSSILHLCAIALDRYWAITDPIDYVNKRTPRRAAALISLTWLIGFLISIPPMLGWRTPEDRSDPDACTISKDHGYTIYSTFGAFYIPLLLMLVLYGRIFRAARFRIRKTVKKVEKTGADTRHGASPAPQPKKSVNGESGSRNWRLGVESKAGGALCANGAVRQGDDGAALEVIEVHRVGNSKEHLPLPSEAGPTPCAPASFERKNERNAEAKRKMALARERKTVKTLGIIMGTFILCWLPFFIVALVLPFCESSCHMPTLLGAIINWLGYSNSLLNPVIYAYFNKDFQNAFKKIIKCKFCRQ
T10 sequence (P0DMS8 whole entry): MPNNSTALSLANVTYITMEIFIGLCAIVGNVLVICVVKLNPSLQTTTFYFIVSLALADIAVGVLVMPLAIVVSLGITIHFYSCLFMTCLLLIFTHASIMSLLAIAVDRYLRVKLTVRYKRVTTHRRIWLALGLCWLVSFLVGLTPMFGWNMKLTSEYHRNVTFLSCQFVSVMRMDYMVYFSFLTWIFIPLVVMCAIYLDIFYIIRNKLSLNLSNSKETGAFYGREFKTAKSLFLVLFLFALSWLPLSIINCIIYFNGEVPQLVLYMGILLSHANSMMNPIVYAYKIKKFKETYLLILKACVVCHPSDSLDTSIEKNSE
T7 sequence (P30939 whole entry): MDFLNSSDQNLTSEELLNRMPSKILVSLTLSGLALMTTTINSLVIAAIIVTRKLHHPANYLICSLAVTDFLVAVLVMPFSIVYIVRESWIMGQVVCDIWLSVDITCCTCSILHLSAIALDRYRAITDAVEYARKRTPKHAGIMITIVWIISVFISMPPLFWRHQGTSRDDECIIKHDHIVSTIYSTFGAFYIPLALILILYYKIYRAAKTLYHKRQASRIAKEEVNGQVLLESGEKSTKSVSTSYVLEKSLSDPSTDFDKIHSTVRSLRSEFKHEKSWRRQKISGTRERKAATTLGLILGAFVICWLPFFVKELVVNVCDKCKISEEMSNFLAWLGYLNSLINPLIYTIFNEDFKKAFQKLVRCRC
T1 sequence (P48039 whole entry): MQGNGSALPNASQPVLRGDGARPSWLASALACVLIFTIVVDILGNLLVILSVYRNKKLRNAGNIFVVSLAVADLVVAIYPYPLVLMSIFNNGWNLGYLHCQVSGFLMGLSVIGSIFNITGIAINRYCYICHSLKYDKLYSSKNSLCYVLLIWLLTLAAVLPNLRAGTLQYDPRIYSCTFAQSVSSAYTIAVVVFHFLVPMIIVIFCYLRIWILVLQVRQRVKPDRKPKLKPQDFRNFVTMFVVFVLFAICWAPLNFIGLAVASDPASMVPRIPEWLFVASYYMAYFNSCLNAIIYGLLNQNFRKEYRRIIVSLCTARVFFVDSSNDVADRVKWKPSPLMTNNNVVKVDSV

For the molecule `COc1ccc2[nH]c(I)c(CCNC(C)=O)c2c1` [2-Iodomelatonin], the EC80 (usually the concentration at which the effect reaches the 80% level) on MTNR1A is 0.00277 µM. As to `CCCCCCC(C)(C)c1cc(O)c2c(c1)OC(C)(C)[C@@H]1CC=C(CO)C[C@@H]21` [HU210], the CB1 internalization result in the assay on CB1 is reported as “near maximal internalization”.

On to `NCCc1c[nH]cn1` [Histamine], for which the EC80 at HRH2 (follow-up concentration-response assays) was found to be 10.722 µM; on HRH2 (screen, CHO, RT, 2HR), 10.7 µM; at HRH4, 0.102 µM. Regarding `Cc1ccccc1N1CCN(S(=O)(=O)C[C@]23CC[C@H](C[C@@H]2NC(=O)[C@@H](N)CCS(C)(=O)=O)C3(C)C)CC1` [L-368,899], the IC50 – broadly, the midpoint of a concentration-inhibition curve – against OXTR amounted to 0.00739 µM. For `CCCCC/C=C\C[C@@H](O)/C=C/C=C/C=C\[C@@H](O)CCCC(=O)O` [Leukotriene B4], the EC80 at LTB4R came out at 0.456 µM. In the case of `Cc1cc(NC(=O)Nc2ccc(N(C)C)cc2)c2cc(F)cc(F)c2n1` [SB 408124], the IC50 came out at 0.0744 µM against HCRTR1 and 11.5 µM at HCRTR2. On to `COc1cc(Br)c(S(=O)(=O)Nc2ccc(Cl)c(O[C@@H]3CCN(C)C3)c2)cc1OC` [SB 657510], for which, on UTR2, the IC50 was 0.122 µM. On to `NCCc1c[nH]c2ccc(O)cc12` [Serotonin / 5-HT, Serotonin], for which the EC80 at HTR1A came to 0.377 µM; on HTR1B it was 0.173 µM; on HTR1E it was 0.0216 µM; at HTR1F, 0.127 µM; on HTR2A, 0.171 µM; at HTR5A, 0.0264 µM. On ADORA3, `COc1ccccc1NC(=O)Nc1nc(-c2cccnc2)nc2ccccc12` [VUF 5574] showed an IC50 of 0.00373 µM.
